The IC50 is the midpoint of a concentration-inhibition curve.

In one test the test system is HT-29. In words: Cytotoxicity against human HT29 cells by MTT assay. The test is classed as functional, cell-based. A general note: Formazan colour is commonly taken as a measure of viable cells.
`CC[C@@]1(O)C(=O)OCc2c1cc1n(c2=O)Cc2cc3ccccc3nc2-1` [CAMPTOTHECIN] showed an IC50 of 2 µM.
The same measure, in the same setting: for `CC(Cc1cc2c(cc1O)OCO2)[C@@H](C)[C@H](O)c1ccc2c(c1)OCO2` (single isomer, unassigned) [SAUCERNEOL H] the value was 53 µM.
Still for that read-out and setting: to `COc1ccc([C@H](O)[C@@H](C)Oc2ccc([C@H]3O[C@H](c4ccc5c(c4)OCO5)[C@H](C)[C@H]3C)cc2OC)cc1OC` [SAUCERNEOL D] belongs 13 µM; to `C[C@@H]([C@H](C)[C@H](O)c1ccc2c(c1)OCO2)[C@H](O)c1ccc2c(c1)OCO2` [SAUCERNEOL I], 21 µM; to `COc1cc([C@H]2O[C@H](c3ccc4c(c3)OCO4)[C@H](C)[C@H]2C)ccc1O[C@H](C)[C@@H](O)c1ccc2c(c1)OCO2` [SAUCERNEOL F], 10 µM.
The same measure, in the same setting: to `CC(Cc1cc2c(cc1O)OCO2)C(C)C(=O)c1ccc2c(c1)OCO2` (stereo not drawn) [SAUCERNEOL G] belongs 55 µM.

A further test deals with MCF7. The experiment in a line: Cytotoxicity against human MCF7 cells by MTT assay. The test is classed as functional, cell-based.
`CC[C@@]1(O)C(=O)OCc2c1cc1n(c2=O)Cc2cc3ccccc3nc2-1` [CAMPTOTHECIN] registered a half-maximal inhibitory concentration (IC50) of 10 µM.
In the case of `CC(Cc1cc2c(cc1O)OCO2)[C@@H](C)[C@H](O)c1ccc2c(c1)OCO2` (single isomer, unassigned) [SAUCERNEOL H], the half-inhibitory concentration (IC50) is 72 µM.
On the same count and under the same terms, for `COc1ccc([C@H](O)[C@@H](C)Oc2ccc([C@H]3O[C@H](c4ccc5c(c4)OCO5)[C@H](C)[C@H]3C)cc2OC)cc1OC` [SAUCERNEOL D] the value was more than 100 µM; for `C[C@@H]([C@H](C)[C@H](O)c1ccc2c(c1)OCO2)[C@H](O)c1ccc2c(c1)OCO2` [SAUCERNEOL I], more than 100 µM.
The same measure, in the same setting: to `COc1cc([C@H]2O[C@H](c3ccc4c(c3)OCO4)[C@H](C)[C@H]2C)ccc1O[C@H](C)[C@@H](O)c1ccc2c(c1)OCO2` [SAUCERNEOL F] belongs more than 100 µM.
On the same count and under the same terms, to `CC(Cc1cc2c(cc1O)OCO2)C(C)C(=O)c1ccc2c(c1)OCO2` (stereo not drawn) [SAUCERNEOL G] belongs 64 µM.

The subject of the next test is HepG2. In words: Cytotoxicity against human HEPG2 cells by MTT assay. In kind it is functional, cell-based.
`CC[C@@]1(O)C(=O)OCc2c1cc1n(c2=O)Cc2cc3ccccc3nc2-1` [CAMPTOTHECIN] displayed an IC50 of 0.3 µM.
The same measure, in the same setting: to `CC(Cc1cc2c(cc1O)OCO2)[C@@H](C)[C@H](O)c1ccc2c(c1)OCO2` (single isomer, unassigned) [SAUCERNEOL H] belongs 61 µM; to `COc1ccc([C@H](O)[C@@H](C)Oc2ccc([C@H]3O[C@H](c4ccc5c(c4)OCO5)[C@H](C)[C@H]3C)cc2OC)cc1OC` [SAUCERNEOL D], 16 µM; to `C[C@@H]([C@H](C)[C@H](O)c1ccc2c(c1)OCO2)[C@H](O)c1ccc2c(c1)OCO2` [SAUCERNEOL I], more than 100 µM.
On the same count and under the same terms, to `COc1cc([C@H]2O[C@H](c3ccc4c(c3)OCO4)[C@H](C)[C@H]2C)ccc1O[C@H](C)[C@@H](O)c1ccc2c(c1)OCO2` [SAUCERNEOL F] belongs 11 µM; to `CC(Cc1cc2c(cc1O)OCO2)C(C)C(=O)c1ccc2c(c1)OCO2` (stereo not drawn) [SAUCERNEOL G], 62 µM.

(Values after ChEMBL document CHEMBL1140189, “Lignans from the roots of Saururus chinensis” (J Nat Prod, 2008).)
